Assay results taken from patent US3984393A, “Aminoglycoside antibiotics” (The Upjohn Company, priority 1975, dated 1976).
Converted amounts (≈) assume the structure as drawn. Like-named read-outs stand apart in the source and are kept apart here.

Experiments:
P. mirabilis A-63 = assay: standard microplate test in BHI Agar (MIC), P. mirabilis A-63; assay type: cell-based; conditions: Proteus mirabilis, A63, 20 h; P. mirabilis A-63; retest table, group (9), (11), (7α), neamine control; read-out: Minimum Inhibitory Concentration
Experimental: (§1) Compounds were also tested in a standard microplate test in Brain Heart Infusion (BHI) Agar, at a concentration of 1 mg/ml. Incubation is at 37° and end points are read at 20 hours. Brain Heart Infusion Agar (supplied by Difco Laboratories, Detroit, Michigan, U.S.A.) has the following composition:
(§2) Compounds (7β), (7α) and (9) were tested again along with compounds (11) and (14β) against a neamine control using the same conditions as given above.

S. marcescens UC 131 = assay: standard microplate test in BHI Agar (MIC), S. marcescens UC 131; assay type: cell-based; conditions: Serratia marcescens, UC131, 20 h; S. marcescens UC 131; retest table, group (9), (11), (7α), neamine control; read-out: Minimum Inhibitory Concentration
Experimental: as §1, §2

S. flexneri UC 143 = assay: standard microplate test in BHI Agar (MIC), S. flexneri UC 143; assay type: cell-based; conditions: Shigella flexneri, UC143, 20 h, retest table, group (9), (11), (7α), neamine control, read-out: Minimum Inhibitory Concentration
Experimental: as §1, §2

E. coli UC 45 = assay: standard microplate test in BHI Agar (MIC), E. coli UC 45; assay type: cell-based; conditions: Escherichia coli, UC45, 20 h
Experimental: as §1, §2

D. pneumoniae UC 41 = assay: standard microplate test in BHI Agar (MIC), D. pneumoniae UC 41; assay type: cell-based; conditions: Streptococcus pneumoniae, UC41, 20 h
Experimental: as §1, §2

S. aureus UC 76 = assay: standard microplate test in BHI Agar (MIC), S. aureus UC 76; assay type: cell-based, Staphylococcus aureus; conditions: for MIC: Staphylococcus aureus, UC76, 20 h
Experimental: as §1, §2

St. faecalis UC 694 = assay: standard microplate test in BHI Agar (MIC), St. faecalis UC 694; assay type: cell-based; conditions: Enterococcus faecalis, UC694, 20 h, read-out: Minimum Inhibitory Concentration
Experimental: as §1, §2

S. schottmuelleri UC 126 = assay: standard microplate test in BHI Agar (MIC), S. schottmuelleri UC 126; assay type: cell-based; conditions: 20 h, read-out: Minimum Inhibitory Concentration
Experimental: as §1, §2

K. pneumoniae UC 58 = assay: standard microplate test in BHI Agar (MIC), K. pneumoniae UC 58; assay type: cell-based; conditions: Klebsiella pneumoniae, UC58, 20 h
Experimental: as §1, §2

Ps. aeruginosa UC 95 = assay: standard microplate test in BHI Agar (MIC), Ps. aeruginosa UC 95; assay type: cell-based; conditions: Pseudomonas aeruginosa, UC95, 20 h, Ps. aeruginosa UC 95, read-out: Minimum Inhibitory Concentration
Experimental: as §1, §2

P. rettgeri UC 339 = assay: standard microplate test in BHI Agar (MIC), P. rettgeri UC 339; assay type: cell-based; conditions: Providencia rettgeri, UC339, 20 h; P. rettgeri UC 339; retest table, group (9), (11), (7α), neamine control; read-out: Minimum Inhibitory Concentration
Experimental: as §1, §2

S. hemolyticus UC 152 = assay: standard microplate test in BHI Agar (MIC), S. hemolyticus UC 152; assay type: cell-based, Streptococcus hemolyticus; conditions: for MIC: Streptococcus pyogenes
Experimental: as §1, §2

B. cereus = assay: standard disc plate assay, 12.5 mm paper discs (zone of inhibition), B. cereus; assay type: cell-based, Bacillus cereus; conditions: for zone of inhibition at 5000 µg/mL / zone of inhibition at 10000 µg/mL: Bacillus cereus, B. cereus; for zone of inhibition at 5000 µg/mL: 5 mg/ml; for zone of inhibition at 10000 µg/mL: 10 mg/ml; for active against Bacillus cereus: conclusion in words from the above results
Description: (§3) The novel intermediates, disclosed herein, are useful to make novel aminoglycoside antibiotics. These novel aminoglycoside antibiotics are antibacterially active, and, thus, they can be used in various environments to eradicate or control sensitive bacteria. Following are in vitro antibacterial test results for representative compounds of the subject invention. The results were obtained with a standard disc plate assay using 12.5 mm paper discs.

B. subtilis = assay: standard disc plate assay, 12.5 mm paper discs (zone of inhibition), B. subtilis; assay type: cell-based, Bacillus subtilis; conditions: for zone of inhibition at 5000 µg/mL / zone of inhibition at 10000 µg/mL: Bacillus subtilis, B. subtilis; for zone of inhibition at 5000 µg/mL: 5 mg/ml; for zone of inhibition at 10000 µg/mL: 10 mg/ml; for active against Bacillus subtilis: conclusion in words from the above results
Description: as §3

S. aureus UC 746 = assay: standard microplate test in BHI Agar (MIC), S. aureus UC 746; assay type: cell-based; conditions: Staphylococcus aureus, UC746, 37°, 20 h, first table, read-out: Minimum Inhibitory Concentration
Experimental: (§4) Compounds were also tested in a standard microplate test in Brain Heart Infusion (BHI) Agar, at a concentration of 1 mg/ml. Incubation is at 37° and end points are read at 20 hours. Brain Heart Infusion Agar (supplied by Difco Laboratories, Detroit, Michigan, U.S.A.) has the following composition: […]

S. typhi TG-3 = assay: standard microplate test in BHI Agar (MIC), S. typhi TG-3; assay type: cell-based; conditions: Salmonella enterica, 20 h, read-out: Minimum Inhibitory Concentration
Experimental: as §1, §2

P. vulgaris UC 93 = assay: standard microplate test in BHI Agar (MIC), P. vulgaris UC 93; assay type: cell-based; conditions: Proteus vulgaris, UC93, 20 h
Experimental: as §1, §2

P. morgani UC 3186 = assay: standard microplate test in BHI Agar (MIC), P. morgani UC 3186; assay type: cell-based; conditions: 20 h, retest table, group (9), (11), (7α), neamine control
Experimental: as §1, §2

S. aureus UC 570 = assay: standard microplate test in BHI Agar (MIC), S. aureus UC 570; assay type: cell-based; conditions: Staphylococcus aureus, UC570, 20 h, 37°, first table, read-out: Minimum Inhibitory Concentration
Experimental: as §4

[1] = E. coli UC 45, BHI agar, 37°, 20 h, first table, read-out: Minimum Inhibitory Concentration
[2] = D. pneumoniae UC 41, BHI agar, 37°, 20 h, first table, read-out: Minimum Inhibitory Concentration
[3] = S. faecalis UC 694, retest table, group (9), (11), (7α), neamine control
[4] = St. faecalis UC 694, BHI agar, 37°, 20 h, first table
[5] = retest table, group (9), (11), (7α), neamine control
[6] = read-out: Minimum Inhibitory Concentration, K. pneumoniae UC 58, BHI agar, 37°, 20 h, first table
[7] = K. pneumoniae UC 58, retest table, group (9), (11), (7α), neamine control, read-out: Minimum Inhibitory Concentration
[8] = BHI agar, 37°, 20 h, first table
[9] = P. vulgaris UC 93, BHI agar, 37°, 20 h, first table, read-out: Minimum Inhibitory Concentration

Structure (SMILES): CC1(O[C@@H]2[C@@H](O)[C@H](O[C@H]3O[C@H](CN)[C@@H](O)[C@H](O)[C@H]3N)[C@@H](N)C[C@H]2N)O[C@H]2O[C@H](CO)[C@@H](O)[C@H]2O1 (stereo partly drawn) [Compound (9)]
- MIC (P. mirabilis A-63): 500 µg/mL (≈ 1010 µM)
- MIC (S. marcescens UC 131): 500 µg/mL (≈ 1010 µM)
- MIC (S. flexneri UC 143): 500 µg/mL (≈ 1010 µM)
- MIC (E. coli UC 45; [1]): 250 µg/mL (≈ 504 µM)
- MIC (E. coli UC 45; E. coli UC 45, retest table, group (9), (11), (7α), neamine control, read-out: Minimum Inhibitory Concentration): 250 µg/mL (≈ 504 µM)
- MIC (D. pneumoniae UC 41; [2]): > 1000 µg/mL
- MIC (D. pneumoniae UC 41; D. pneumoniae UC 41, retest table, group (9), (11), (7α), neamine control, read-out: Minimum Inhibitory Concentration): 125 µg/mL (≈ 252 µM)
- MIC (S. aureus UC 76; S. aureus UC 76, retest table, group (9), (11), (7α), neamine control, read-out: Minimum Inhibitory Concentration): 125 µg/mL (≈ 252 µM)
- active against Staphylococcus aureus (S. aureus UC 76; conclusion in words from the above results): active
- MIC (St. faecalis UC 694; [3]): 1000 µg/mL (≈ 2010 µM)
- MIC (St. faecalis UC 694; [4]): > 1000 µg/mL
- MIC (S. schottmuelleri UC 126; BHI agar, 37°, first table): 250 µg/mL (≈ 504 µM)
- MIC (S. schottmuelleri UC 126; [5]): 62.5 µg/mL (≈ 126 µM)
- MIC (K. pneumoniae UC 58; [6]): 62.5 µg/mL (≈ 126 µM)
- MIC (K. pneumoniae UC 58; [7]): 31.2 µg/mL (≈ 62.8 µM)
- MIC (Ps. aeruginosa UC 95; [8]): > 1000 µg/mL
- MIC (Ps. aeruginosa UC 95; [5]): 1000 µg/mL (≈ 2010 µM)
- MIC (P. rettgeri UC 339): 1000 µg/mL (≈ 2010 µM)
- Minimum Inhibitory Concentration (S. hemolyticus UC 152; S. hemolyticus UC 152, retest table, group (9), (11), (7α), neamine control): 3.9 µg/mL
- MIC (S. hemolyticus UC 152; UC152, S. hemolyticus UC 152, BHI agar, 37°, 20 h, first table, read-out: Minimum Inhibitory Concentration): 3.9 µg/mL (≈ 7.85 µM)
- zone of inhibition at 5000 µg/mL (B. cereus): 29 mm
- zone of inhibition at 10000 µg/mL (B. cereus): 34 mm
- active against Bacillus cereus (B. cereus): active
- zone of inhibition at 5000 µg/mL (B. subtilis): 32 mm
- zone of inhibition at 10000 µg/mL (B. subtilis): 34 mm
- active against Bacillus subtilis (B. subtilis): active
- MIC (S. aureus UC 746): 250 µg/mL (≈ 504 µM)
- MIC (S. typhi TG-3): 250 µg/mL (≈ 504 µM)
- MIC (P. vulgaris UC 93; [9]): 500 µg/mL (≈ 1010 µM)
- MIC (P. vulgaris UC 93; P. vulgaris UC 93, retest table, group (9), (11), (7α), neamine control, read-out: Minimum Inhibitory Concentration): 125 µg/mL (≈ 252 µM)
- MIC (P. morgani UC 3186; P. morgani UC 3186, read-out: Minimum Inhibitory Concentration): 125 µg/mL (≈ 252 µM)
- MIC (S. aureus UC 570): 250 µg/mL (≈ 504 µM)

Structure (SMILES): NC[C@H]1O[C@H](O[C@H]2[C@H](O)[C@@H](O[C@H]3O[C@H](CO)[C@@H](O)[C@H]3O)[C@H](N)C[C@@H]2N)[C@H](N)[C@@H](O)[C@@H]1O [(7α), 6-O-(α-D-Ribofuranosyl)neamine]
- MIC (P. mirabilis A-63): 500 µg/mL (≈ 1100 µM)
- MIC (S. marcescens UC 131): 250 µg/mL (≈ 550 µM)
- MIC (S. flexneri UC 143): 125 µg/mL (≈ 275 µM)
- MIC (E. coli UC 45; [1]): 500 µg/mL (≈ 1100 µM)
- MIC (E. coli UC 45; read-out: Minimum Inhibitory Concentration, E. coli UC 45, retest table, group (9), (11), (7α), neamine control): 62.5 µg/mL (≈ 138 µM)
- MIC (D. pneumoniae UC 41; [2]): > 1000 µg/mL
- MIC (D. pneumoniae UC 41; read-out: Minimum Inhibitory Concentration, D. pneumoniae UC 41, retest table, group (9), (11), (7α), neamine control): 125 µg/mL (≈ 275 µM)
- MIC (S. aureus UC 76; S. aureus 284 UC 76, BHI agar, 37°, 20 h, first table, read-out: Minimum Inhibitory Concentration): 1000 µg/mL (≈ 2200 µM)
- MIC (S. aureus UC 76; read-out: Minimum Inhibitory Concentration, S. aureus UC 76, retest table, group (9), (11), (7α), neamine control): 62.5 µg/mL (≈ 138 µM)
- MIC (St. faecalis UC 694; [3]): 1000 µg/mL (≈ 2200 µM)
- MIC (St. faecalis UC 694; [4]): > 1000 µg/mL
- MIC (S. schottmuelleri UC 126; BHI agar, 37°, first table): 500 µg/mL (≈ 1100 µM)
- MIC (K. pneumoniae UC 58; [6]): 62.5 µg/mL (≈ 138 µM)
- MIC (K. pneumoniae UC 58; [7]): 7.8 µg/mL (≈ 17.2 µM)
- MIC (Ps. aeruginosa UC 95; [8]): > 1000 µg/mL
- MIC (Ps. aeruginosa UC 95; [5]): 1000 µg/mL (≈ 2200 µM)
- MIC (P. rettgeri UC 339): 1000 µg/mL (≈ 2200 µM)
- MIC (S. hemolyticus UC 152; UC152, 20 h, read-out: Minimum Inhibitory Concentration, S. hemolyticus UC 152, BHI agar, 37°, 20 h, first table): 31.2 µg/mL (≈ 68.7 µM)
- MIC (S. hemolyticus UC 152; UC152, 20 h, S. hemolyticus UC 152, retest table, group (9), (11), (7α), neamine control, read-out: Minimum Inhibitory Concentration): 7.8 µg/mL (≈ 17.2 µM)
- zone of inhibition at 5000 µg/mL (B. cereus): 25 mm
- zone of inhibition at 10000 µg/mL (B. cereus): 32 mm
- active against Bacillus cereus (B. cereus): active
- zone of inhibition at 5000 µg/mL (B. subtilis): 32 mm
- zone of inhibition at 10000 µg/mL (B. subtilis): 34 mm
- active against Bacillus subtilis (B. subtilis): active
- MIC (S. aureus UC 746): 1000 µg/mL (≈ 2200 µM)
- MIC (S. typhi TG-3): 62.5 µg/mL (≈ 138 µM)
- MIC (P. vulgaris UC 93; [9]): 1000 µg/mL (≈ 2200 µM)
- MIC (P. vulgaris UC 93; read-out: Minimum Inhibitory Concentration, P. vulgaris UC 93, retest table, group (9), (11), (7α), neamine control): 125 µg/mL (≈ 275 µM)
- MIC (P. morgani UC 3186; read-out: Minimum Inhibitory Concentration, P. morgani UC 3186): 125 µg/mL (≈ 275 µM)
- MIC (S. aureus UC 570): 500 µg/mL (≈ 1100 µM)
